Entries after “also recorded” stand apart in the source; their conditions may differ.
Columns and labels:
[1] = system: MC3T3-El osteoblast-line cells; assay: Osteoblast cell proliferation (3H-thymidine incorporation into DNA); format: cell-based, mouse; conditions: for OSTEOBLAST STIMULATION: ability to stimulate 3H-thymidine incorporation in MC3T3-El osteoblast-line cells, stimulation over control; for osteoblast proliferation and differentiation: summary statement in words, bone forming cells, cell line not named
Description: Only cells undergoing mitosis will synthesize new DNA and thus only these cells will incorporate the radiolabelled DNA specific nucleotide, thymidine. […] The ability of agents to increase osteoblast proliferation and differentiation can be predicted by their action on cultured osteoblast-line cells in vitro. In this test mouse (MC3T3-El), and human (TE-85) osteoblast-line cells were cultured in vitro and the effect of various progestins was tested on osteoblast cell proliferation. Osteoblast cell proliferation was determined by measuring the rate of DNA synthesis, which was quantified by measuring the rate of ³H-thymidine incorporation into DNA.
Following their placement into 96 well culture plates all the osteoblast-line cells, either the MC3T3-El or the TE-85 cell lines, were allowed an additional 24 hours preincubation period in media containing only 0.1% fetal bovine sera. The next day the test compounds were added and screened at concentrations ranging from 10⁻¹⁴ to 10⁻⁶ M depending on the particular study. Twenty hours later a 20 ul aliquot of media containing 0.4 uCi of ³H-thymidine was added to each culture well. The cells were then incubated for an additional 4 hours. The incubation was terminated by aspirating the media and washing with HBSS (Hank's Balanced Salt Solution). The cells were then treated with 100 ul of Trypsin-EDTA (Ethylene Diamine Tetra Acetic Acid) (0.5% trypsin and 5.3 mM EDTA) for 30 minutes at room temperature. The cells were then aspirated onto a glass fiber filter and washed with water. The radioactivity on the filters was quantified by liquid scintillation spectroscopy. The rate of ³H-thymidine incorporation into DNA is then utilized as an index of cell proliferation.
Mouse (MC3T3-El) osteoblast-line cells were cultured in vitro and the effect of various progestins on the ability of the cells to incorporate 3H-thymidine was determined. Osteoblast cell proliferation is determined by measuring the rate of DNA synthesis which was quantified by measuring the rate of ³H-thymidine incorporation into DNA. MC-3T3-El osteoblast-line cells were harvested from large culture flasks where they were allowed to grow to near confluency using Trypsin.

[2] = biological target: T1, rat prostate androgen cytosolic receptors (Rattus norvegicus, UniProt P15207); assay: Androgen receptor binding (competitive 3H-DHT displacement); conditions: 1 nM 3H-DHT, 24 hours at 4°C; mean + 1 S.E. of 4 determinations in duplicate
T1 construct: the supernatant was used as the cytosolic androgen receptor preparation; from tissue; host or cells: ventral prostate glands of castrated male rats (250-300 g); 105,000 g cytosol supernatant
T1 sequence (P15207 1-902): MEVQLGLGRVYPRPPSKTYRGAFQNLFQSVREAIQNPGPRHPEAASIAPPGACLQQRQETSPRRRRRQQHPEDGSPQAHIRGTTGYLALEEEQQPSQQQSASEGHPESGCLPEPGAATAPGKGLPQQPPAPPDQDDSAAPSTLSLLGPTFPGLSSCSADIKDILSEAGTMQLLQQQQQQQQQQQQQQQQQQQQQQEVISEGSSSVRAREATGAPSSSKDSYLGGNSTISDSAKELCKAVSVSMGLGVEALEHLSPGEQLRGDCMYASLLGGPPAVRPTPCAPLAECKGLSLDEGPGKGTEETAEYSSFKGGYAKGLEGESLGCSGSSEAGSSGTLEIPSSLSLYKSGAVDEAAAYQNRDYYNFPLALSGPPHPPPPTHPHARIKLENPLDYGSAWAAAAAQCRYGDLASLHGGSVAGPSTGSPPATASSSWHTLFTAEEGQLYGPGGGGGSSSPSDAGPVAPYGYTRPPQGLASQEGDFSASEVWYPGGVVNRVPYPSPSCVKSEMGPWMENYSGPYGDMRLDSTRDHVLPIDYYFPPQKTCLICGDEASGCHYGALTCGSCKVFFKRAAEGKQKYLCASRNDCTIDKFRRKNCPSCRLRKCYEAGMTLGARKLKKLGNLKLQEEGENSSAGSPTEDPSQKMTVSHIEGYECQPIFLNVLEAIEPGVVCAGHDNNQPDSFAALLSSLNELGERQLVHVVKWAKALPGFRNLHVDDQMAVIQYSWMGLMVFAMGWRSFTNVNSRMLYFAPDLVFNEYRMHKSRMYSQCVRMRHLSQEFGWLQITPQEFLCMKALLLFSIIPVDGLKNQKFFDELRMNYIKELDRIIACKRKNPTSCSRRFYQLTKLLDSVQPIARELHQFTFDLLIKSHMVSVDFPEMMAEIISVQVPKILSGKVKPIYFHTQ
Description: The relative binding affinity of other steroids, such as progestins, for androgen receptors can be determined by evaluating their ability to displace ³H-DHT from these rat ventral prostate receptors in vitro. Cytosolic androgen receptors were prepared from ventral prostate glands isolated from castrated male rats (250-300 g). Ventral prostate glands were homogenized and centrifuged at 105,000 g for 60 min at 4°C and the supernatant was used as the cytosolic androgen receptor preparation. […] The relative degree of receptor binding of the test progestin was expressed as percent inhibition of total ³H-DHT binding.
The relative binding affinity of other steroids, such as progestins, for androgen receptors is determined by evaluating their ability to displace ³H-DHT from these rat ventral prostate receptors in vitro. Cytosolic androgen receptors were prepared from ventral prostate glands isolated from castrate male rats (250-300 g). Ventral prostate glands were homogenized and centrifuged at 105,000 g for 60 min at 4°C and the supernatant used as the cytosolic androgen receptor preparation. […] The relative degree of receptor binding of the test progestin was expressed as percent inhibition of total ³H-DHT binding.
Relative androgen receptor binding activity was analyzed in competitive binding assays utilizing 3H-DHT binding for rat prostate androgen cytosolic receptors.

[3] = system: MC3T3-El osteoblast-line cells; assay: Osteoblast cell number by Coulter counting; format: cell-based, mouse; conditions: 0.01 to 100 nM, 5 days, no fetal bovine sera; result in words
Description: In this study MC3T3-El osteoblast-line cells were cultured into 6 well plates at a density of 50,000 cells/well in 10% fetal bovine sera. The following day media was changed to that containing no fetal bovine sera . The next day some of the cells were harvested by trypsin and counted using a Coulter cell counter. This count was considered as Day 0. […] After 5 days all of the cells were harvested and counted using a Coulter cell counter.
Figure 2. […] Each striped bar represents the mean and the vertical line l S.E.M. of 6 determinations.

[4] = system: TE-85 human osteoblast-line cells; assay: Osteoblast cell proliferation (3H-thymidine incorporation into DNA); format: cell-based; conditions: TE-85 cells, 0.0001 to 100 nM; result in words
Source text: The action of select progestins to stimulate osteoblast proliferation can be measured in culture by estimating the rate of DNA synthesis by the rate of 3H-thymidine incorporation into DNA. Only cells undergoing mitosis will synthesize new DNA and thus only these cells will incorporate the radiolabelled DNA specific nucleotide, thymidine. The stimulation of the proliferation and differentiation of bone-forming cells, osteoblasts, is a prerequisite for an increase in bone formation and bone mass. The ability of agents to increase osteoblast proliferation and differentiation can be predicted by their action on cultured osteoblast-line cells in vitro. […] Osteoblast cell proliferation was determined by measuring the rate of DNA synthesis, which was quantified by measuring the rate of ³H-thymidine incorporation into DNA. […]
MC-3T3-El (cloned by Sudo and Coworkers, Koriyama Japan) and TE85 (American Type Tissue Culture Collection #CRL 1543, Rockville, MD) osteoblast-line cells were harvested from large culture flasks (175 cm²) where they were allowed to grow to near confluency using Trypsin. […] The radioactivity on the filters was quantified by liquid scintillation spectroscopy. […]
Osteoblast growth was determined by me: ring the rate of 3H-thymidine incorporation into DNA as in Example #1. […]

[5] = system: TE-85 human osteoblast-line cells; assay: Alkaline phosphatase secretion into the media (osteoblast differentiation); format: cell-based
Description: Osteoblast growth was determined by me: ring the rate of 3H-thymidine incorporation into DNA as in Example #1. Osteoblast differention was estimated by measuring the secretion of skeletal alkaline phosphatase into the media. Skeletal alkaline phosphatase is considered a reliable marker of osteoblast differention and activity. TE-85 human osteoblast-line cells were cultured as described previously in Example #1. […] 3H-Thymidine incorporation into the osteoblast cell DNA and alkaline phosphatase secreted into the media was measured simultaneously (Figure 3 and 4).

[6] = system: T47D breast carcinoma-line cells; assay: Breast carcinoma cell proliferation (3H-thymidine incorporation into DNA); format: cell-based, human; conditions: 0.00001 to 100 nM, result in words
Description: T47D breast (Human) carcinoma-line cells (American Type Tissue Culture Collection #HTB 133, Rockville, MD) were harvested using Trypsin from large (175 cm²) culture flasks where they were allowed to grow to near confluency. The cells were plated into 96 well culture plates, 1600 cells in 100 ul per well in DMEM with 25 mM Hepes buffer, L-glutamine (584 mg/l); D-glucose (4.5 gm/l) supplemented with 10% fetal bovine sera; penicillin (100 units/ml) and streptomycin (100 mcg/ml); sodium pyruvate (10 uM final concentration). The cells were allowed to plate overnight in DMEM containing 10% fetal bovine sera at 37°C in an atmosphere of 5% CO₂/95% air. Following their placement into 96 well culture plates, the cells were incubated for an additional 24 hour preincubation period in media containing only 0.1% fetal bovine sera. The next day the test compounds were added and screened at concentrations ranging from 10⁻¹⁴ to 10⁻⁶ M depending on the particular study. Twenty hours later a 20 ul aliquot of media containing 0.4 uCi of ³H-thymidine was added to each culture well. The cells were then incubated for an additional 4 hours. […] The radioactivity on the filters was quantified by liquid scintillation spectroscopy. […]
MC3T3-El cells were cultured as described in Example #1. […] The radioactivity on the filters was quantified by liquid scintillation spectroscopy. […]

SMILES | OSTEOBLAST STIMULATION [1] | osteoblast proliferation and differentiation [1] | also measured
C#C[C@]1(OC(C)=O)CC[C@H]2[C@@H]3CCC4=CC(=NO)CC[C@@H]4[C@H]3CC[C@@]21CC (mixture of isomers) [NORGESTIMATE] | NOT ACTIVE | do not stimulate | 
C#C[C@]1(O)CC[C@H]2[C@@H]3CCC4=CC(=O)CC[C@@H]4[C@H]3C(=C)C[C@@]21CC [3-KETO-DESOGESTREL] | NOT ACTIVE |  | 
C[C@]12CC[C@H]3[C@@H](CCC4=CC(=O)CC[C@@H]43)[C@@H]1CC[C@@H]2O [19-nortestosterone] |  | do not stimulate | 
C[C@]12CCC(=O)C[C@@H]1CC[C@@H]1[C@@H]2CC[C@]2(C)[C@@H](O)CC[C@@H]12 [DIHYDROTESTOSTERONE, 5-alpha-dihydrotestosterone] | NOT ACTIVE |  | 
C#C[C@]1(O)C=C[C@H]2[C@@H]3CCC4=CC(=O)CC[C@@H]4[C@H]3CC[C@@]21CC [GESTODENE] | NOT ACTIVE | do not stimulate | IC50 [2]: 13 nM
C#C[C@]1(O)CC[C@H]2[C@@H]3CCC4=CC(=O)CC[C@@H]4[C@H]3CC[C@@]21CC [LEVONORGESTREL] | NOT ACTIVE |  | 
C#C[C@]1(O)CC[C@H]2[C@@H]3CCC4=CC(=O)CC[C@@H]4[C@H]3CC[C@@]21C [NORETHINDRONE] | ACTIVE | significantly and reproducibly stimulate | osteoblast proliferation ([1]; MC3T3-El cells, result in words): does possess osteoblast proliferative action; also recorded: dose-related increase; osteoblast number [3]: induced an increase in osteoblast number; 3H-thymidine incorporation [4]: increased; secretion of alkaline phosphatase ([5]; TE-85 cells, 0.0001 to 100 nM, result in words): increased; cellular alkaline phosphatase activity in osteoblast-line cells ([5]; summary statement in words, cell line not named): stimulate; proliferation of breast cell line [6]: dose-related increase
CC(=O)[C@H]1CC[C@H]2[C@@H]3CCC4=CC(=O)CC[C@]4(C)[C@H]3CC[C@]12C [PROGESTERONE] | ACTIVE | significantly and reproducibly stimulate | 
CC(=O)O[C@]1(C(C)=O)CC[C@H]2[C@@H]3C=C(Cl)C4=CC(=O)CC[C@]4(C)[C@H]3CC[C@@]21C [chlormadionone acetate] |  | significantly and reproducibly stimulate | 
CC(=O)O[C@]1(C(C)=O)CC[C@H]2[C@@H]3C=C(Cl)C4=CC(=O)[C@@H]5C[C@@H]5[C@]4(C)[C@H]3CC[C@@]21C [cyproterone acetate] |  | do not stimulate | 
C#C[C@]1(O)CC[C@H]2[C@@H]3CCC4=CCCC[C@@H]4[C@H]3C(=C)C[C@@]21CC [desogestrel] |  | do not stimulate | 
CC(=O)O[C@]1(C(C)=O)CC[C@H]2[C@@H]3C[C@H](C)C4=CC(=O)CC[C@]4(C)[C@H]3CC[C@@]21C [medroxyprogesterone acetate] |  | significantly and reproducibly stimulate | 
CC(=O)O[C@]1(C(C)=O)CC[C@H]2[C@@H]3C=C(C)C4=CC(=O)CC[C@]4(C)[C@H]3CC[C@@]21C [megestrol acetate] |  | significantly and reproducibly stimulate | 
C#C[C@]1(OC(C)=O)CC[C@H]2[C@@H]3CCC4=CC(=O)CC[C@@H]4[C@H]3CC[C@@]21C [norethindrone acetate] |  | significantly and reproducibly stimulate | 
C#C[C@]1(O)CC[C@H]2[C@@H]3CCC4=C(CCC(=O)C4)[C@H]3CC[C@@]21C [norethynodrel] |  | significantly and reproducibly stimulate | 

From EP0474374A1, “Method for treatment of bone wasting diseases using a progestin” (ORTHO PHARMACEUTICAL CORPORATION, priority 1990, dated 1992)
